Reference: ChEMBL document CHEMBL1201862, “PubChem BioAssay data set” (2004)
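All cell lines were grown in 96-well plates and treated with compound for 48 hours. GI50 marks 50% less growth.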 The source made the active and inactive calls. Cut-off read from the data, not from the text of the source: active = GI50 up to about 1.1 µM and inactive = higher.

Columns and labels:
Test in all cases: DTP human tumour cell line panel, 48 h
T47D = test system: T47D
K562 = test system: K562
SF-539 = test system: SF-539
M14 = test system: M14
UO-31 = test system: UO-31
OVCAR-3 = test system: OVCAR-3
SR = test system: SR
MDA-MB-231 = test system: MDA-MB-231
SK-MEL-28 = test system: SK-MEL-28
SK-MEL-5 = test system: SK-MEL-5
SK-OV-3 = test system: SK-OV-3
DU-145 = test system: DU-145
TK-10 = test system: TK-10
EKVX = test system: EKVX
786-0 = test system: 786-0
A498 = test system: A498
NCI-H460 = test system: NCI-H460
SK-MEL-2 = test system: SK-MEL-2
OVCAR-4 = test system: OVCAR-4
IGROV-1 = test system: IGROV-1
HCT-15 = test system: HCT-15
SNB-19 = test system: SNB-19
PC-3 = test system: PC-3
NCI-H23 = test system: NCI-H23
HL-60 = test system: HL-60
HT-29 = test system: HT-29
Malme-3M = test system: Malme-3M
NCI-H522 = test system: NCI-H522
Hs-578T = test system: Hs-578T
COLO 205 = test system: COLO 205
NCI-H226 = test system: NCI-H226
NCI/ADR-RES = test system: NCI/ADR-RES
MDA-MB-435 = test system: MDA-MB-435
CCRF-CEM = test system: CCRF-CEM
UACC-62 = test system: UACC-62
UACC-257 = test system: UACC-257
SF-268 = test system: SF-268
SF-295 = test system: SF-295
A549 = test system: A549
HOP-92 = test system: HOP-92
OVCAR-8 = test system: OVCAR-8
SN12C = test system: SN12C
OVCAR-5 = test system: OVCAR-5
KM12 = test system: KM12
MOLT-4 = test system: MOLT-4
U-251 = test system: U-251
RPMI-8226 = test system: RPMI-8226
HCT-116 = test system: HCT-116
MDA-N = test system: MDA-N
HOP-62 = test system: HOP-62
MCF7 = test system: MCF7
BT-549 = test system: BT-549
ACHN = test system: ACHN
CAKI-1 = test system: CAKI-1
RXF 393 = test system: RXF 393
SNB-75 = test system: SNB-75
LOX IMVI = test system: LOX IMVI
HCC 2998 = test system: HCC 2998
SW-620 = test system: SW-620

Cc1cc(S(=O)(=O)N/C(=C(\C#N)C(=O)c2ccccc2)[n+]2ccc(N(C)C)cc2)c([S-])cc1Cl
GI50 (T47D): > 100 µM (inactive)
GI50 (K562): > 100 µM (inactive)
GI50 (SF-539): > 100 µM (inactive)
GI50 (M14): > 100 µM (inactive)
GI50 (UO-31): > 100 µM (inactive)
GI50 (OVCAR-3): > 100 µM (inactive)
GI50 (SR): 64.9 µM (inactive)
GI50 (MDA-MB-231): > 100 µM (inactive)
GI50 (SK-MEL-28): > 100 µM (inactive)
GI50 (SK-MEL-5): > 100 µM (inactive)
GI50 (SK-OV-3): > 100 µM (inactive)
GI50 (DU-145): > 10 µM (inactive)
GI50 (TK-10): 53.6 µM (inactive)
GI50 (EKVX): 32 µM (inactive)
GI50 (786-0): > 100 µM (inactive)
GI50 (A498): 32.4 µM (inactive)
GI50 (NCI-H460): > 100 µM (inactive)
GI50 (SK-MEL-2): 83 µM (inactive)
GI50 (OVCAR-4): 69.8 µM (inactive)
GI50 (IGROV-1): 88.3 µM (inactive)
GI50 (HCT-15): > 100 µM
GI50 (SNB-19): > 100 µM (inactive)
GI50 (PC-3): > 100 µM (inactive)
GI50 (NCI-H23): > 100 µM (inactive)
GI50 (HL-60): > 100 µM (inactive)
GI50 (HT-29): > 100 µM (inactive)
GI50 (Malme-3M): 20.9 µM (inactive)
GI50 (NCI-H522): 35.6 µM (inactive)
GI50 (Hs-578T): > 100 µM (inactive)
GI50 (COLO 205): > 100 µM (inactive)
GI50 (NCI-H226): > 100 µM (inactive)
GI50 (NCI/ADR-RES): > 100 µM (inactive)
GI50 (MDA-MB-435): > 100 µM (inactive)
GI50 (CCRF-CEM): > 100 µM (inactive)
GI50 (UACC-62): > 100 µM (inactive)
GI50 (UACC-257): > 100 µM (inactive)
GI50 (SF-268): > 100 µM (inactive)
GI50 (SF-295): > 100 µM (inactive)
GI50 (A549): > 100 µM (inactive)
GI50 (HOP-92): 0.33 µM (active)
GI50 (OVCAR-8): > 100 µM (inactive)
GI50 (SN12C): > 100 µM (inactive)
GI50 (OVCAR-5): > 100 µM (inactive)
GI50 (KM12): > 100 µM (inactive)
GI50 (MOLT-4): 60.1 µM (inactive)
GI50 (U-251): > 100 µM (inactive)
GI50 (RPMI-8226): > 100 µM (inactive)
GI50 (HCT-116): 37.2 µM (inactive)
GI50 (MDA-N): > 100 µM (inactive)
GI50 (HOP-62): > 100 µM (inactive)
GI50 (MCF7): > 100 µM (inactive)
GI50 (BT-549): > 100 µM (inactive)
GI50 (ACHN): > 100 µM (inactive)
GI50 (CAKI-1): > 100 µM (inactive)
GI50 (RXF 393): > 100 µM (inactive)

COc1cc(CCN(C)C)cc(OC)c1OC
GI50 (T47D): > 100 µM (inactive)
GI50 (K562): > 100 µM (inactive)
GI50 (SF-539): > 100 µM (inactive)
GI50 (M14): > 100 µM (inactive)
GI50 (OVCAR-3): > 100 µM (inactive)
GI50 (SR): > 100 µM (inactive)
GI50 (MDA-MB-231): > 100 µM (inactive)
GI50 (SK-MEL-5): > 100 µM (inactive)
GI50 (SK-OV-3): > 100 µM (inactive)
GI50 (DU-145): > 100 µM (inactive)
GI50 (TK-10): > 100 µM (inactive)
GI50 (EKVX): > 100 µM (inactive)
GI50 (A498): > 100 µM (inactive)
GI50 (SNB-75): > 100 µM (inactive)
GI50 (LOX IMVI): > 100 µM (inactive)
GI50 (NCI-H460): > 100 µM (inactive)
GI50 (SK-MEL-2): > 100 µM (inactive)
GI50 (OVCAR-4): > 100 µM (inactive)
GI50 (IGROV-1): > 100 µM (inactive)
GI50 (HCT-15): > 100 µM
GI50 (SNB-19): > 100 µM (inactive)
GI50 (PC-3): > 100 µM (inactive)
GI50 (HCC 2998): > 100 µM (inactive)
GI50 (NCI-H23): > 100 µM (inactive)
GI50 (HL-60): > 100 µM (inactive)
GI50 (HT-29): > 100 µM (inactive)
GI50 (NCI-H522): > 100 µM (inactive)
GI50 (Hs-578T): > 100 µM (inactive)
GI50 (COLO 205): > 100 µM (inactive)
GI50 (NCI-H226): > 100 µM (inactive)
GI50 (NCI/ADR-RES): > 100 µM (inactive)
GI50 (MDA-MB-435): > 100 µM (inactive)
GI50 (CCRF-CEM): > 100 µM (inactive)
GI50 (UACC-62): > 100 µM (inactive)
GI50 (UACC-257): > 100 µM (inactive)
GI50 (SF-268): > 100 µM (inactive)
GI50 (SF-295): > 100 µM (inactive)
GI50 (A549): > 100 µM (inactive)
GI50 (SW-620): > 100 µM (inactive)
GI50 (HOP-92): > 100 µM (inactive)
GI50 (OVCAR-8): > 100 µM (inactive)
GI50 (SN12C): > 100 µM (inactive)
GI50 (OVCAR-5): > 100 µM (inactive)
GI50 (KM12): > 100 µM (inactive)
GI50 (MOLT-4): > 100 µM (inactive)
GI50 (U-251): > 100 µM (inactive)
GI50 (RPMI-8226): > 100 µM (inactive)
GI50 (HCT-116): > 100 µM (inactive)
GI50 (MDA-N): > 100 µM (inactive)
GI50 (HOP-62): > 100 µM (inactive)
GI50 (MCF7): > 100 µM (inactive)
GI50 (BT-549): > 100 µM (inactive)
GI50 (ACHN): > 100 µM (inactive)
GI50 (CAKI-1): > 100 µM (inactive)
GI50 (RXF 393): > 100 µM (inactive)

COc1ccc2c3c1O[C@H]1C(O)CCC4(O)[C@@H](C2)NCC[C@]314 (stereo not given in full)
GI50 (T47D): > 100 µM (inactive)
GI50 (K562): > 100 µM (inactive)
GI50 (SF-539): > 100 µM (inactive)
GI50 (M14): > 100 µM (inactive)
GI50 (UO-31): > 100 µM (inactive)
GI50 (OVCAR-3): > 100 µM (inactive)
GI50 (SR): > 100 µM (inactive)
GI50 (MDA-MB-231): > 100 µM (inactive)
GI50 (SK-MEL-28): > 100 µM (inactive)
GI50 (SK-MEL-5): > 100 µM (inactive)
GI50 (SK-OV-3): > 100 µM (inactive)
GI50 (DU-145): > 100 µM (inactive)
GI50 (TK-10): > 100 µM (inactive)
GI50 (EKVX): > 100 µM (inactive)
GI50 (786-0): > 100 µM (inactive)
GI50 (A498): > 100 µM (inactive)
GI50 (LOX IMVI): > 100 µM (inactive)
GI50 (SK-MEL-2): > 100 µM (inactive)
GI50 (OVCAR-4): > 100 µM (inactive)
GI50 (IGROV-1): > 100 µM (inactive)
GI50 (HCT-15): > 100 µM
GI50 (SNB-19): > 100 µM (inactive)
GI50 (PC-3): > 100 µM (inactive)
GI50 (NCI-H23): > 100 µM (inactive)
GI50 (HL-60): > 100 µM (inactive)
GI50 (HT-29): > 100 µM (inactive)
GI50 (Malme-3M): > 100 µM (inactive)
GI50 (NCI-H522): > 100 µM (inactive)
GI50 (Hs-578T): > 100 µM (inactive)
GI50 (COLO 205): > 100 µM (inactive)
GI50 (NCI-H226): > 100 µM (inactive)
GI50 (NCI/ADR-RES): > 100 µM (inactive)
GI50 (MDA-MB-435): > 100 µM (inactive)
GI50 (CCRF-CEM): > 100 µM (inactive)
GI50 (UACC-62): > 100 µM (inactive)
GI50 (UACC-257): > 100 µM (inactive)
GI50 (SF-268): > 100 µM (inactive)
GI50 (SF-295): > 100 µM (inactive)
GI50 (A549): > 100 µM (inactive)
GI50 (SW-620): > 100 µM (inactive)
GI50 (HOP-92): > 100 µM (inactive)
GI50 (OVCAR-8): > 100 µM (inactive)
GI50 (SN12C): > 100 µM (inactive)
GI50 (OVCAR-5): > 100 µM (inactive)
GI50 (KM12): > 100 µM (inactive)
GI50 (MOLT-4): > 100 µM (inactive)
GI50 (U-251): > 100 µM (inactive)
GI50 (RPMI-8226): > 100 µM (inactive)
GI50 (HCT-116): > 100 µM (inactive)
GI50 (MDA-N): > 100 µM (inactive)
GI50 (HOP-62): > 100 µM (inactive)
GI50 (MCF7): > 100 µM (inactive)
GI50 (BT-549): > 100 µM (inactive)
GI50 (ACHN): > 100 µM (inactive)
GI50 (CAKI-1): > 100 µM (inactive)
